Several values for one entry are separate records, joined by “and”; a condition that tells them apart may be missing. Equal values may be shown once.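 Test compounds were applied to cells in 96-well plates for 48 hours at 5 doses. GI50 marks 50% less growth. TGI denotes the concentration required for complete inhibition of growth.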 Some results are limits rather than exact numbers.

This note sets out measurements from PubChem BioAssay (NCI).

Among the test systems are SR leukemia; HCC-2998 colon; OVCAR-8 ovarian; MDA-MB-231 breast; HL-60(TB) leukemia; 786-0 renal; IGROV1 ovarian; SF-268 CNS; HOP-92 NSCLC; EKVX NSCLC.
Common to all, as to assay: NCI tumour cell line growth inhibition, 48 h

With `CC1OC(CC(=O)O)Cc2c1c(O)c1c(O)cc(-c3cc(=O)c4c(=O)c5c(c(=O)c=4c3=O)CC(CC(=O)O)OC5C)c(O)c1c2O` (stereo not given), the TGI in the test with SR leukemia was 53.9 µM; with HCC-2998 colon it was > 73.9 µM and 55.2 µM; in the test on OVCAR-8 ovarian, 75.9 µM; in the test with MDA-MB-231 breast, 64.9 µM; in the test on HL-60(TB) leukemia, greater than 49.1 µM; in the test on 786-0 renal it was 46.7 µM. Also, the TGI in the test on IGROV1 ovarian is greater than 86.3 µM; in the test on SF-268 CNS, greater than 100 µM; in the test on HOP-92 NSCLC, 41.3 µM; with EKVX NSCLC, 18.3 µM and 74.5 µM. The GI50 with HCC-2998 colon is 18.9 µM; in the test with MDA-MB-231 breast it was 29.4 µM; with 786-0 renal, 32.1 µM; with SF-268 CNS it was 47.8 µM; with EKVX NSCLC it was 26.1 µM.

Regarding `COc1cc2c(/C=C3/C(=O)Nc4ccc(O)cc43)c(Cl)n(Cc3cc(OC)c(OC)c(OC)c3)c2cc1C`, the GI50 with SR leukemia is 0.329 µM; in the test with HCC-2998 colon it was 3.3 µM; in the test on OVCAR-8 ovarian, 3.05 µM; in the test on MDA-MB-231 breast, 4.75 µM; with HL-60(TB) leukemia it was 1.97 µM; with 786-0 renal, 1.6 µM. Also, the values for the GI50 in the test on SF-268 CNS, in the test with HOP-92 NSCLC and in the test with EKVX NSCLC were 4.64 µM, 3.18 µM and 2.69 µM, respectively. The TGI was greater than 36.1 µM in the test with HCC-2998 colon; greater than 26.5 µM in the test on OVCAR-8 ovarian; greater than 100 µM with MDA-MB-231 breast; 10.3 µM with HL-60(TB) leukemia; greater than 29.3 µM in the test on 786-0 renal; 5.75 µM in the test with IGROV1 ovarian. Also, the TGI is greater than 100 µM in the test on SF-268 CNS, 21.9 µM with HOP-92 NSCLC and greater than 38.5 µM in the test with EKVX NSCLC.

For the compound `Cc1c[nH]c(=O)n(Cc2nnc(CCC(=O)c3nc4ccccc4[nH]3)o2)c1=O`, the GI50 was 0.447 µM with SR leukemia; 0.421 µM with HCC-2998 colon; 0.661 µM in the test with OVCAR-8 ovarian; 0.671 µM with MDA-MB-231 breast; 0.966 µM in the test with HL-60(TB) leukemia; 1.98 µM with 786-0 renal. The GI50 in the test with IGROV1 ovarian was 0.575 µM; in the test with SF-268 CNS it was 1.5 µM; in the test on HOP-92 NSCLC, 1.44 µM; with EKVX NSCLC, 1.51 µM. Besides, the TGI in the test on SR leukemia is greater than 100 µM; in the test on HCC-2998 colon, 7.14 µM; in the test on OVCAR-8 ovarian, greater than 100 µM; with MDA-MB-231 breast, greater than 53 µM; in the test on HL-60(TB) leukemia it was greater than 100 µM; in the test with 786-0 renal, 38.3 µM. Further, the TGI is greater than 90.4 µM in the test on IGROV1 ovarian, greater than 100 µM in the test with SF-268 CNS, greater than 100 µM with HOP-92 NSCLC and greater than 100 µM with EKVX NSCLC.

With `CC(=O)Nc1ccc(OC(C)=O)cc1`, the GI50 was less than 0.01 µM in the test on SR leukemia; less than 0.0117 µM in the test on HCC-2998 colon; less than 0.01 µM in the test with OVCAR-8 ovarian; less than 0.01 µM in the test on MDA-MB-231 breast; less than 0.01 µM in the test with HL-60(TB) leukemia; less than 0.01 µM in the test on 786-0 renal. In addition, the GI50 was less than 0.0122 µM with IGROV1 ovarian, less than 0.0103 µM in the test with SF-268 CNS, less than 0.0116 µM in the test with HOP-92 NSCLC and 3 µM in the test with EKVX NSCLC. The TGI is 1.5 µM in the test on SR leukemia; 0.327 µM in the test with HCC-2998 colon; greater than 49.1 µM in the test on OVCAR-8 ovarian; 2.04 µM in the test with MDA-MB-231 breast; less than 0.01 µM with HL-60(TB) leukemia; 5.52 µM in the test with 786-0 renal. Besides, the TGI in the test with IGROV1 ovarian was greater than 48.5 µM; in the test on SF-268 CNS it was 46.2 µM; in the test with HOP-92 NSCLC it was 1.81 µM; in the test on EKVX NSCLC it was greater than 78.7 µM.

Consider `Cc1ccc2[nH]c(O)c(N=Nc3ccccc3[N+](=O)[O-])c2c1`, for which the TGI with SR leukemia was 32.6 µM; in the test with HCC-2998 colon it was greater than 100 µM; with OVCAR-8 ovarian, greater than 33.9 µM; in the test with MDA-MB-231 breast, 6.03 µM; in the test on HL-60(TB) leukemia, greater than 100 µM; in the test on 786-0 renal it was 3.6 µM. Further, the TGI is 20 µM with IGROV1 ovarian, greater than 29.4 µM in the test with SF-268 CNS, 6.55 µM in the test on HOP-92 NSCLC and 57.3 µM in the test with EKVX NSCLC.

In the case of `COc1ccc2nc3c(cc2c1)C(=O)CC(c1ccccc1)C3` (stereo not given), the GI50 in the test with SR leukemia is 0.379 µM; in the test on HCC-2998 colon, 15.9 µM; in the test on OVCAR-8 ovarian it was 0.934 µM; with MDA-MB-231 breast, 3 µM; with HL-60(TB) leukemia, 0.301 µM; with 786-0 renal, 2.23 µM. For the same compound, the GI50 was 2.32 µM in the test with IGROV1 ovarian, greater than 100 µM in the test with SF-268 CNS and 5.81 µM in the test on EKVX NSCLC. For the same compound, the TGI with SR leukemia, in the test with HCC-2998 colon, in the test on OVCAR-8 ovarian, in the test with MDA-MB-231 breast, in the test with 786-0 renal and in the test on IGROV1 ovarian was greater than 100 µM throughout. In addition, the TGI in the test on SF-268 CNS, with HOP-92 NSCLC and in the test with EKVX NSCLC was greater than 100 µM in each case.

Consider `NNc1nc2ccccc2o1`, for which the TGI in the test on SR leukemia, with HCC-2998 colon, with OVCAR-8 ovarian, in the test with MDA-MB-231 breast, in the test on HL-60(TB) leukemia and in the test with 786-0 renal was greater than 100 µM each time. Also, the TGI with IGROV1 ovarian, in the test with SF-268 CNS, in the test with HOP-92 NSCLC and with EKVX NSCLC was greater than 100 µM each time.

`COc1ccc(-c2cc(-c3ccc(OC)cc3)nc(NCCCNc3ccnc4cc(Cl)ccc34)n2)cc1`: the GI50 in the test with SR leukemia was 1.43 µM; with HCC-2998 colon, 1.73 µM; in the test with OVCAR-8 ovarian, 1.81 µM; with MDA-MB-231 breast, 1.95 µM; with HL-60(TB) leukemia it was 1.91 µM; in the test with 786-0 renal, 1.62 µM. The GI50 in the test with IGROV1 ovarian was 1.51 µM; with SF-268 CNS, 1.65 µM; in the test with HOP-92 NSCLC, 1.24 µM; with EKVX NSCLC, 1.67 µM. For the same compound, the TGI stood at 5.86 µM with SR leukemia; 3.2 µM with HCC-2998 colon; 3.57 µM in the test on OVCAR-8 ovarian; 3.59 µM in the test with MDA-MB-231 breast; 3.86 µM with HL-60(TB) leukemia; 2.99 µM in the test with 786-0 renal. Further, the TGI amounted to 3.12 µM with IGROV1 ovarian, 3.3 µM in the test on SF-268 CNS, 2.64 µM in the test on HOP-92 NSCLC and 4.17 µM with EKVX NSCLC.

In the case of `Fc1ccc(-c2ncn(CCCN3CCOCC3)c2-c2ccncc2)cc1`, the GI50 in the test on SR leukemia, with HCC-2998 colon, in the test on OVCAR-8 ovarian, in the test on MDA-MB-231 breast, in the test on HL-60(TB) leukemia and with 786-0 renal was greater than 25 µM each time. Also, the GI50 in the test with IGROV1 ovarian, in the test on SF-268 CNS, in the test on HOP-92 NSCLC and in the test with EKVX NSCLC was greater than 25 µM throughout. Further, the TGI in the test on SR leukemia, in the test with HCC-2998 colon, in the test with OVCAR-8 ovarian, with MDA-MB-231 breast, in the test on HL-60(TB) leukemia and with 786-0 renal was greater than 25 µM each time. Also, the TGI with IGROV1 ovarian, with SF-268 CNS, in the test on HOP-92 NSCLC and in the test on EKVX NSCLC was greater than 25 µM each time.

On to `CCOC(=O)Nc1ccc2c(c1)C(=O)N(CC)c1ccccc1O2`, for which the GI50 in the test on SR leukemia is 0.0479 µM; in the test with HCC-2998 colon, 0.309 µM; in the test on OVCAR-8 ovarian it was 0.235 µM; in the test with MDA-MB-231 breast, 0.4 µM; with HL-60(TB) leukemia, 0.0545 µM; with 786-0 renal, 0.434 µM. Moreover, the GI50 is 0.265 µM in the test on IGROV1 ovarian, 0.26 µM with SF-268 CNS, 1.5 µM with HOP-92 NSCLC and 0.264 µM with EKVX NSCLC. In addition, the TGI in the test with HCC-2998 colon was greater than 100 µM; in the test with OVCAR-8 ovarian, greater than 100 µM; with MDA-MB-231 breast, greater than 100 µM; with HL-60(TB) leukemia, 0.155 µM; in the test with 786-0 renal, greater than 100 µM; in the test on IGROV1 ovarian, greater than 100 µM. For the same compound, the TGI with SF-268 CNS, in the test on HOP-92 NSCLC and with EKVX NSCLC was greater than 100 µM throughout.

On to `Cc1ccc(-c2nc(/C=N/Nc3cc(C)nc4ccc(Br)cc34)c(C)o2)cc1`, for which the GI50 is 2.67 µM in the test with SR leukemia; 1.74 µM with HCC-2998 colon; 2.08 µM with OVCAR-8 ovarian; 1.98 µM in the test with MDA-MB-231 breast; 1.9 µM in the test with HL-60(TB) leukemia; 1.86 µM in the test on 786-0 renal. The GI50 in the test with IGROV1 ovarian was 1.84 µM; with SF-268 CNS, 2.09 µM; in the test on HOP-92 NSCLC, 1.5 µM; in the test with EKVX NSCLC it was 9.51 µM. The TGI with SR leukemia stood at 7.71 µM; with HCC-2998 colon, 3.28 µM; with OVCAR-8 ovarian, 4.4 µM; in the test on MDA-MB-231 breast, 3.77 µM; with HL-60(TB) leukemia it was 4.05 µM; in the test on 786-0 renal, 3.67 µM. Also, the TGI was found to be 3.52 µM in the test with IGROV1 ovarian, 4.22 µM in the test on SF-268 CNS, 2.98 µM with HOP-92 NSCLC and 21.4 µM in the test on EKVX NSCLC.

With `Cc1nc(-n2nc(-c3ccccc3)cc2-c2ccccc2)sc1C(=O)/C=C/c1ccc([N+](=O)[O-])cc1`, the TGI in the test with SR leukemia is 24.2 µM; in the test with HCC-2998 colon it was 38.1 µM; in the test on OVCAR-8 ovarian it was greater than 31.6 µM; in the test with MDA-MB-231 breast it was greater than 100 µM; in the test on HL-60(TB) leukemia it was 55.9 µM; with 786-0 renal, 29.8 µM. Besides, the TGI in the test with IGROV1 ovarian was greater than 100 µM; with SF-268 CNS it was greater than 87.6 µM; in the test on HOP-92 NSCLC it was greater than 85.7 µM; in the test with EKVX NSCLC, greater than 100 µM.
